In brackets after ≈: the same amount, converted by molar mass.
Columns and labels:
[1] = target: T1, AMPK complex 1 (containing alpha1beta1gamma1) (Homo sapiens, UniProt Q13131+Q9Y478); test: In vitro AMPK activation assay (ADP-Glo Kinase Assay); type: biochemical; details: 30 μM ATP, 1 μM peptide, 60 min, room temperature
T1 construct: GST (Glutathion S transferase) (N); made in house; host or cells: baculovirus; virus made in Sf9, expression in High Five cells
From the text: Activated AMPK complex 1 (containing alpha1beta1gamma1) was obtained from baculovirus expression system. The gene encoding AMPK alpha1 was cloned into the pACG2T vector (BD Biosciences) to obtain a N-terminal Glutathion S transferase (GST)-fusion protein. The genes encoding AMPK beta 1 and gamma1 were cloned into the p2Bac dual multiple cloning site vector (Invitrogen) with beta1 under the control of the p10 promoter and gamma1 under the control of the PH promoter. The transfer vectors containing AMPK were co-transfected individually with AcPNV BacMagic-3 DNA (EMD Millipore) in Sf9 cells and the recombinant baculoviruses were harvested after 5 days, followed by 3 rounds of amplification of the virus stock in Sf9 cells. AMPK (alpha1beta1gamma1) was expressed in High Five 5 cells by co-infection of recombinant alpha1 virus and recombinant beta1/gamma1 virus for 72 h at 27° C. Cells were harvested by centrifugation and lysed by 3 freeze/thaw cycles in PBS with 10% glycerol and protease inhibitor cocktail (Roche). After centrifugation AMPK a1b1g1 in the supernatant was captured by immobilized glutathione (GE Healthcare), impurities were washed away with PBS and AMPK alpha1beta1gamma1 was eluted with PBS containing 20 mM reduced gluthathione. The protein buffer was then exchanged to PBS with 10% glycerol and protein concentration was determined by UV absorbance.
The white 384-well Optiplates (cat.no. 6007299) were purchased from PerkinElmer. The V9101 ADP-Glo Kinase Assay and ultra pure ATP (V915A) was purchased from Promega. The substrate for AMPK (NH2-HMRSAMSGLHLVKRR_CONH2) was purchased from Upstate (12-355).
Compounds were tested in either serial dilutions or single dose concentrations. The serial compound dilutions were prepared in 100% DMSO automatically. The final DMSO concentration in the assay was 0.1%.
The Compound Stock Solutions were 10 mM in 100% DMSO. The compounds were solubilised at room temperature.
In the 384-well plates 1.25 ul of test compound in assay buffer was mixed with 1.25 ul of AMPK and 1.25 μl of the peptide (final concentration of 1 μM) and 1.25 μl of ATP (final concentration of 30 μM), both dissolved in assay buffer. This step was followed by an incubation time of 60 min. Then 5 μl of ADP Glo Reagent was added. This was followed by 40 min of incubation. Then 10 μl of Kinase Detection Reagent was admixed. The plates were sealed and after an incubation period of 30 min, the luminescence signal was measured in an Envision reader. All incubation steps were accomplished at room temperature.
Each assay microtiter plate contained wells with vehicle controls instead of compound (0.1% DMSO in water) as reference for the low signal (100% CTL, low signal), and wells with serial dilutions of AMP (final 30 μM) as reference for high signals.
The luminescence signal generated was proportional to the ADP concentration produced and was correlated with AMPK activity. The analysis of the data was performed by the calculation of the percentage of ATP consumption of AMPK in the presence of the test compound compared to the consumption of ATP in the presence of AMPK without compound. (RLU(sample)/RLU(low control))*100[RLU=relative luminescence units]
An activator of the AMPK enzyme gave values above 100% CTL.
EC50 values based on dose response curves are calculated with the XIFIT software using the 4 Parameter Logistic Model or Sigmoidal Dose-Response Model.

[2] = Aqueous solubility (buffer vs acetonitrile/water, 24 h shaking, LC-UV); type: physicochemical; details: kinetic from dmso stock, 2.5% DMSO, ">" = more than 90% dissolved
Procedure: The aqueous solubility of the compounds of the invention is determined by comparing the amount dissolved in buffer to the amount in an acetonitrile/water (1/1) solution. Starting from a 10 mM DMSO stock solution aliquots are diluted with acetonitrile/water (1/1) or buffer resp. After 24 h of shaking, the solutions are filtrated and analyzed by LC-UV. The amount dissolved in buffer is compared to the amount in the acetonitrile solution.
Solubility is usually being measured from 0.001 to 0.125 mg/ml at a DMSO concentration of 2.5%. If more than 90% of the compound is dissolved in buffer, the value is marked with “>”.

T1 sequence (Q13131 whole entry): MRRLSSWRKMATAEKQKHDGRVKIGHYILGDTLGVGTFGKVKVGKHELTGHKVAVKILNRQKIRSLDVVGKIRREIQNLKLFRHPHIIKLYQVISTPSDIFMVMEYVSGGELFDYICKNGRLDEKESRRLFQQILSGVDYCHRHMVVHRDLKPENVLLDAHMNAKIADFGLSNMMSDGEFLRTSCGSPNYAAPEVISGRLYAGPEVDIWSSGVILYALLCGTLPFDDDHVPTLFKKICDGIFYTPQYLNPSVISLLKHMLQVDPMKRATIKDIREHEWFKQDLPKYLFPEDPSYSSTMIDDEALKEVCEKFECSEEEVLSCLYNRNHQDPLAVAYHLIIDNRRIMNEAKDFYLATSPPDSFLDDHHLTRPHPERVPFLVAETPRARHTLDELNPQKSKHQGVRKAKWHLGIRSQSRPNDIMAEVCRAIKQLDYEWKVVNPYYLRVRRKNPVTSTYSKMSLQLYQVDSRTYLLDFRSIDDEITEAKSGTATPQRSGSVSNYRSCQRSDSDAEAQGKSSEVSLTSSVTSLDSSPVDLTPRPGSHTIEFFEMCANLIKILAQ
T1 sequence (Q9Y478 whole entry): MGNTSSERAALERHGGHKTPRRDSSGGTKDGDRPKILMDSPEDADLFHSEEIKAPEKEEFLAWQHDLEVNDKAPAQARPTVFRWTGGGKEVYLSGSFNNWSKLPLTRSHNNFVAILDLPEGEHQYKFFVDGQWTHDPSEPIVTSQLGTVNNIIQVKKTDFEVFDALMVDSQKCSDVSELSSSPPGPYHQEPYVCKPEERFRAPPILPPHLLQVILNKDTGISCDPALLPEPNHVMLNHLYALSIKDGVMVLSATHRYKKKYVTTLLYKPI
T1 sequence (P54619 whole entry partner): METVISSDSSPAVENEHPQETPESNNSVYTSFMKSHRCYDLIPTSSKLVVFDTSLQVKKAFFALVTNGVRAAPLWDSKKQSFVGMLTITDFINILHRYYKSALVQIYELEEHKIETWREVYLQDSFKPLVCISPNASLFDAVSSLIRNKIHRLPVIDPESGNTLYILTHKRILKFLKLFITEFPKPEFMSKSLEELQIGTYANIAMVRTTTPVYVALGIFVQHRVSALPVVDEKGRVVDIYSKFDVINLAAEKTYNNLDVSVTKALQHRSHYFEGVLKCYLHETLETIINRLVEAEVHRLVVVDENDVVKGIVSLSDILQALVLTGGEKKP

| SMILES | solubility at 24 h ([2]; pH 2.2 buffer) | solubility at 24 h ([2]; pH 4.5 buffer) | solubility at 24 h ([2]; pH 6.8 buffer) | EC50 [1] |
| --- | --- | --- | --- | --- |
| CS(=O)(=NC#N)c1ccc(-c2ccc(-c3nc4[nH]c(O[C@@H]5CO[C@H]6[C@@H]5OC[C@H]6O)nc4cc3Cl)cc2)cc1 (stereo partly drawn) [Example 7, S-(4′-(6-Chloro-2-((3R,3aR,6R,6aR)-6-hydroxyhexahydrofuro[3,2-b]furan-3-yloxy)-3H-imidazo[4,5-b]pyridin-5-yl)biphenyl-4-yl)-S-methyl-N-cyano-sulfoximide] | 0.015 mg/mL (≈ 27.2 µM) | < 0.001 mg/mL | < 0.001 mg/mL | 0.001 µM |
| CS(C)(=O)=Nc1ccc(-c2ccc(-c3nc4[nH]c(O[C@@H]5CO[C@H]6[C@@H]5OC[C@H]6O)nc4cc3Cl)cc2)cn1 [Example 22, N-(5-(4-(6-Chloro-2-((3R,3aR,6R,6aR)-6-hydroxyhexahydrofuro[3,2-b]furan-3-yloxy)-3H-imidazo[4,5-b]pyridin-5-yl)phenyl)pyridin-2-yl)-S,S-dimethylsulfoximide] | < 0.08 mg/mL | > 0.007 mg/mL | < 0.001 mg/mL | 0.045 µM |
| CS(=N)(=O)c1ccc(-c2ccc(-c3nc4[nH]c(O[C@@H]5CO[C@H]6[C@@H]5OC[C@H]6O)nc4cc3Cl)cc2)cc1 (stereo partly drawn) [Example 23, (3R,3aR,6R,6aR)-6-(6-Chloro-5-(4′-(S-methylsulfonimidoyl)biphenyl-4-yl)-3H-imidazo[4,5-b]pyridin-2-yloxy)hexahydrofuro[3,2-b]furan-3-ol] | 0.069 mg/mL (≈ 131 µM) | 0.002 mg/mL (≈ 3.8 µM) | 0.001 mg/mL (≈ 1.9 µM) | 0.01 µM |
| CS(=N)(=O)c1ccc(-c2ccc(-c3nc4[nH]c(O[C@@H]5CO[C@H]6[C@@H]5OC[C@H]6O)nc4cc3Cl)cc2)nc1 (stereo partly shown) [Example 27] | 0.077 mg/mL (≈ 146 µM) | < 0.001 mg/mL | < 0.001 mg/mL | 0.004 µM |
| CN=S(C)(=O)c1ccc(-c2ccc(-c3nc4[nH]c(O[C@@H]5CO[C@H]6[C@@H]5OC[C@H]6O)nc4cc3Cl)cc2)nc1 (stereo partly drawn) [Example 28, (3R,3aR,6R,6aR)-6-(6-Chloro-5-(4-(5-(N,S-dimethylsulfonimidoyl)pyridin-2-yl)phenyl)-3H-imidazo[4,5-b]pyridin-2-yloxy)hexahydrofuro[3,2-b]furan-3-ol] | 0.092 mg/mL (≈ 170 µM) | < 0.001 mg/mL | < 0.001 mg/mL | 0.002 µM |
| CS(C)(=O)=NCC1CCN(c2ccc(-c3nc4[nH]c(O[C@@H]5CO[C@H]6[C@@H]5OC[C@H]6O)nc4cc3Cl)cc2)CC1 [Example 31, N-(1-(4-(6-Chloro-2-((3R,3aR,6R,6aR)-6-hydroxyhexahydrofuro[3,2-b]furan-3-yloxy)-3H-imidazo[4,5-b]pyridin-5-yl)phenyl)piperidin-4-ylmethyl)-S,S-dimethylsulfoximide] | > 0.122 mg/mL | 0.105 mg/mL (≈ 187 µM) | 0.089 mg/mL (≈ 158 µM) | 0.017 µM |
| CS(C)(=O)=Nc1cnc(-c2ccc(-c3nc4[nH]c(O[C@@H]5CO[C@H]6[C@@H]5OC[C@H]6O)nc4cc3Cl)cc2)nc1 [Example 34, N-(2-{4-[6-Chloro-2-((3R,3aR,6R,6aR)-6-hydroxyhexahydrofuro[3,2-b]furan-3-yloxy)-3H-imidazo[4,5-b]pyridin-5-yl]-phenyl}-pyrimidin-5-yl)-S,S-dimethylsulfoximide] | 0.004 mg/mL (≈ 7.37 µM) | 0.005 mg/mL (≈ 9.21 µM) | 0.013 mg/mL (≈ 23.9 µM) | 0.003 µM |
| CS(C)(=N)=Nc1ccc(-c2nc3[nH]c(O[C@@H]4CO[C@H]5[C@@H]4OC[C@H]5O)nc3cc2Cl)cc1 [Example 56, N-(4-(6-Chloro-2-((3R,3aR,6R,6aR)-6-hydroxyhexahydrofuro[3,2-b]furan-3-yloxy)-3H-imidazo[4,5-b]pyridin-5-yl)phenyl)-S,S-dimethyl-sulfondiimine] |  |  |  | 0.041 µM |
| CN=S1(=O)CC2CN(c3ccc(-c4nc5[nH]c(O[C@@H]6CO[C@H]7[C@@H]6OC[C@H]7O)nc5cc4Cl)cc3)CC2C1 (stereo partly drawn) [Example 57, (3R,3aR,6R,6aR)-6-{6-Chloro-5-[4-(2-methylimino-2-oxo-hexahydro-2λ^6-thieno[3,4-c]pyrrol-5-yl)-phenyl]-3H-imidazo[4,5-b]pyridin-2-yloxy}-hexahydro-furo[3,2-b]furan-3-ol] |  |  |  | 0.118 µM |

More lines, main results first:

| solubility at 24 h ([2]; pH 2.2 buffer) | solubility at 24 h ([2]; pH 4.5 buffer) | solubility at 24 h ([2]; pH 6.8 buffer) | SMILES | EC50 [1] |
| --- | --- | --- | --- | --- |
| 0.099 mg/mL (≈ 183 µM) | < 0.001 mg/mL | < 0.001 mg/mL | CS(C)(=O)=Nc1cc(-c2ccc(-c3nc4[nH]c(O[C@@H]5CO[C@H]6[C@@H]5OC[C@H]6O)nc4cc3Cl)cc2)ccn1 [Example 36, N-(4-{4-[6-Chloro-2-((3R,3aR,6R,6aR)-6-hydroxyhexahydrofuro[3,2-b]furan-3-yloxy)-3H-imidazo[4,5-b]pyridin-5-yl]-phenyl}-pyridin-2-yl)-S,S-dimethylsulfoximide] | 0.015 µM |
| > 0.128 mg/mL | > 0.117 mg/mL | 0.088 mg/mL (≈ 162 µM) | CS(C)(=O)=Nc1ccc(-c2ccc(-c3nc4[nH]c(O[C@@H]5CO[C@H]6[C@@H]5OC[C@H]6O)nc4cc3Cl)cc2)nn1 [Example 50, N-(6-{4-[6-Chloro-2-((3R,3aR,6R,6aR)-6-hydroxyhexahydrofuro[3,2-b]furan-3-yloxy)-3H-imidazo[4,5-b]pyridin-5-yl]-phenyl}-pyridazin-3-yl)-S,S-dimethylsulfoximide] | 0.304 µM |
| > 0.146 mg/mL | 0.028 mg/mL (≈ 50.4 µM) | 0.002 mg/mL (≈ 3.6 µM) | CS(C)(=O)=NCc1ccc(-c2ccc(-c3nc4[nH]c(O[C@@H]5CO[C@H]6[C@@H]5OC[C@H]6O)nc4cc3Cl)cc2)cn1 [Example 51, N-(5-{4-[6-Chloro-2-((3R,3aR,6R,6aR)-6-hydroxyhexahydrofuro[3,2-b]furan-3-yloxy)-3H-imidazo[4,5-b]pyridin-5-yl]-phenyl}-pyridin-2-ylmethyl)-S,S-dimethylsulfoximide] | 0.092 µM |
| 0.042 mg/mL (≈ 77.6 µM) | < 0.001 mg/mL | < 0.001 mg/mL | CS(=N)(=O)Cc1ccc(-c2ccc(-c3nc4[nH]c(O[C@@H]5CO[C@H]6[C@@H]5OC[C@H]6O)nc4cc3Cl)cc2)cc1 (stereo partly drawn) [Example 52, (3R,3aR,6R,6aR)-6-(6-Chloro-5-(4′-(S-methylsulfonimidoylmethyl)biphenyl-4-yl)-3H-imidazo[4,5-b]pyridin-2-yloxy)hexahydrofuro[3,2-b]furan-3-ol] | 0.003 µM |

From patent US9492436B2, “Azabenzimidazole derivatives” (Boehringer Ingelheim International GmbH, priority 2013, dated 2016)
